In patent US20260200925A1, “SMALL MOLECULE INHIBITORS OF KRAS MUTATED PROTEINS” (MERCK SHARP & DOHME LLC, priority 2021, published 2026) one finds IC50 data, which are given here for four compounds.

What is called IC50 is the concentration that gives 50% inhibition.

In test [1] the target is NRAS (SEQ ID NO: 5) (Homo sapiens, UniProt P01111). The test can be described thus: SOS-catalyzed guanine nucleotide exchange (GNE) assay, NRAS.
Method: (§1) Specifically, the SOS-catalyzed nucleotide exchange assay utilizes a preformed time-resolved fluorescence resonance energy transfer (TR-FRET) complex containing a specific biotinylated RAS protein (KRAS-G12C/V/D, HRAS, NRAS; described above) with BODIPY-GDP, and Terbium-streptavidin. Test compounds are preincubated with this complex for 60 minutes.
(§2) To assemble the preformed TR-FRET complexes, each biotinylated RAS protein is diluted to 2 μM in an EDTA Buffer (20 mM HEPES, 50 mM sodium chloride, 10 mM EDTA, and 0.01% Tween) and incubated at room temperature for one hour. This mixture is then further diluted to 90 nM in an Assay Buffer (20 mM HEPES, 150 mM sodium chloride, 10 mM magnesium chloride, and 0.005% Tween) containing 15 nM of Terbium-Streptavidin (Invitrogen, catalog #PV3577) and 900 nM of BODIPY-GDP (Invitrogen, catalog #G22360) and incubated at room temperature for six hours. It should be noted that this preformed TR-FRET complex for each of the RAS proteins was made ahead of time, aliquoted and stored at −80° C. until the day of the experiment.
(§3) Once titrations are made, 10 nL of the diluted compounds is acoustically dispensed into a 384-well assay plate (Corning, catalog #3820) using an Echo 550 (Labcyte). Each well of the assay plate subsequently receives 3 μL of a specific 3× RAS preformed TR-FRET complex and 3 μL of Assay Buffer and is incubated at room temperature for 60 minutes (preincubation time). […] The final reaction in each well of 9 μL consists of 3 mM GTP, and the specific RAS and SOS proteins in the following concentrations: KRAS-G12C/SOS=3 nM/40 nM, KRAS-G12D/SOS=1 nM/40 nM, KRAS-G12V/SOS=1.25 nM/160 nM, HRAS/SOS=1.25 nM/40 nM, and NRAS/SOS=1.25 nM/40 nM.
(§4) The TR-FRET signal is measured on an Envision (PerkinElmer) plate reader: Excitation filter=340 nm; emission 1=495 nm; emission 2=520 nm; dichroic mirror=D400/D505; delay time=100 ms. The signal of each well is determined as the ratio of the emission at 520 nm to that at 495 nm. […] The apparent effect as a function of compound concentration is fit to a four-parameter logistic equation to calculate IC50 values using Spotfire software.
Test [2] concerns the target G13D (Homo sapiens, UniProt P01116, G13D). Nature of the test: Guanine nucleotide exchange (GNE) assay, G13D. In kind it is biochemical.
Method: as §4
The target of test [3] is HRAS (SEQ ID NO: 4) (Homo sapiens, UniProt P01112). Nature of the test: SOS-catalyzed guanine nucleotide exchange (GNE) assay, HRAS.
HRAS (SEQ ID NO: 4), sequence (P01112 with tags, fused parts or gaps): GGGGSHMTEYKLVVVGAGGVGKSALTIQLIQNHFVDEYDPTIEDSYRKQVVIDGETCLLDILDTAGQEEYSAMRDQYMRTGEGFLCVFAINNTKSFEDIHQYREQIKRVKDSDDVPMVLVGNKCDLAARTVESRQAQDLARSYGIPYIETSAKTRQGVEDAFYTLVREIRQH
Method: as §1, §2, §3, §4
In test [4] the target is Recombinant KRAS-G12D (SEQ ID NO: 2) (Homo sapiens, UniProt P01116, G12D). Nature of the test: SOS-catalyzed guanine nucleotide exchange (GNE) assay, KRAS-G12D.
Recombinant KRAS-G12D (SEQ ID NO: 2), sequence (P01116 with tags, fused parts or gaps isoform P01116-2 G12D): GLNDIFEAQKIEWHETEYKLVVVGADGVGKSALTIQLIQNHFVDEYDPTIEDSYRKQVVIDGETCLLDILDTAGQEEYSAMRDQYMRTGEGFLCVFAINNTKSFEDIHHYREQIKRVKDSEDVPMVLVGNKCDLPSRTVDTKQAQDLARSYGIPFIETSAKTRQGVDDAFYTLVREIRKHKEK
Method: as §1, §2, §3, §4
The target of test [5] is Recombinant KRAS-G12V (SEQ ID NO: 3) (Homo sapiens, UniProt P01116, G12V). Nature of the test: SOS-catalyzed guanine nucleotide exchange (GNE) assay, KRAS-G12V.
Recombinant KRAS-G12V (SEQ ID NO: 3), sequence (P01116 with tags, fused parts or gaps isoform P01116-2 G12V): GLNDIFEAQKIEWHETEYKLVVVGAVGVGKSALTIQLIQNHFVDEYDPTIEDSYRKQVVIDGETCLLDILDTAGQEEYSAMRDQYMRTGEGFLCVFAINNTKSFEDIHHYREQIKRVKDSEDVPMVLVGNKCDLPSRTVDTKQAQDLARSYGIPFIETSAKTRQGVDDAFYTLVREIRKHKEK
Method: as §1, §2, §3, §4
For test [6], the system named is AsPC-1 cells containing homozygous KRAS-G12D activating mutation (p-ERK). Particulars: Homo sapiens, ASPC1, 2 h, read-out: KRAS G12D ASPC-1 IC50 (nM).
Method: Procedure for Cellular Phospho-ERK Assay, G12D
AsPC-1 cells (ATCC® CRL-1682™), containing homozygous KRAS-G12D activating mutation, were cultured in T150 flask in growth medium (RPMI medium 1640-GlutaMAX™—I (ThermoFisher Scientific 61870) containing 10% fetal bovine serum (ThermoFisher Scientific 10091148)). The cells were harvested in growth medium after TrypLE (ThermoFisher scientific 12604021) digestion and were seeded in a 384-well collagen coated cell culture plate (Corning 356702) at a density of 15,000 cells/well, and incubated at 37° C., 5% CO2 overnight. […] RPMI medium 1640-GlutaMAX™—I was added to the intermediate plate and the contents of the intermediate plate were then transferred to the 384-well collagen coated cell culture plate, which was incubated at 37° C., 5% CO2 for 2 hours. After removal of medium from the collagen coated cell culture plate, cells were lysed in lysis buffer from Alpha SureFire® Ultra™ Multiplex p-ERK and total ERK assay kit (PerkinElmer MPSU-PTERK) containing Halt™ Protease and Phosphatase inhibitor cocktail (ThermoFisher Scientific 78446) at room temperature with constant shaking at 300 rpm for 30 minutes. The cell lysates were then transferred to an OptiPlate-384 plate (PerkinElmer 6005620), and the phosphorylation of ERK (p-ERK) and total ERK levels were detected by Alpha SureFire® Ultra™ Multiplex p-ERK kit and total ERK assay kit (PerkinElmer MPSU-PTERK) following the manufacturer's protocol. Assay plates were read on a EnVision Multimode Plate Reader (PerkinElmer), and the ratio of p-ERK vs. total ERK in each well was used as the final readout. Dose response curves were analyzed using a 4-parameter logistic model to calculate IC50 values using Spotfire software.
The test system of test [7] is NCI-H358 cells containing homozygous KRAS-G12C activating mutation (p-ERK). To be noted: Homo sapiens, NCI-H358, 2 h, read-out: G12C H358 IC50 (nM).
Method: Procedure for Cellular Phospho-ERK Assay, G12C
NCI-H358 cells (ATCC® CRL-5807™), containing homozygous KRAS-G12C activating mutation, were cultured in T150 flask in growth medium (RPMI medium 1640-GlutaMAX™—I (ThermoFisher Scientific 61870) containing 10% fetal bovine serum (ThermoFisher Scientific 10091148)). The cells were harvested in growth medium after TrypLE (ThermoFisher scientific 12604021) digestion and were seeded in a 384-well collagen coated cell culture plate (Corning 356702) at a density of 15,000 cells/well, and incubated at 37° C., 5% CO2 overnight. […] RPMI medium 1640-GlutaMAX™—I was added to the intermediate plate and the contents of the intermediate plate were then transferred to the 384-well collagen coated cell culture plate, which was incubated at 37° C., 5% CO2 for 2 hours. After removal of medium from the collagen coated cell culture plate, cells were lysed in lysis buffer from Alpha SureFire® Ultra™ Multiplex p-ERK and total ERK assay kit (PerkinElmer MPSU-PTERK) containing Halt™ Protease and Phosphatase inhibitor cocktail (ThermoFisher Scientific 78446) at room temperature with constant shaking at 300 rpm for 30 minutes. The cell lysates were then transferred to an OptiPlate-384 plate (PerkinElmer 6005620), and the phosphorylation of ERK (p-ERK) and total ERK levels were detected by Alpha SureFire® Ultra™ Multiplex p-ERK kit and total ERK assay kit (PerkinElmer MPSU-PTERK) following the manufacturer's protocol. Assay plates were read on an EnVision Multimode Plate Reader (PerkinElmer), and the ratio of p-ERK vs. total ERK in each well was used as the final readout. Dose response curves were analyzed using a 4-parameter logistic model to calculate IC50 values using Spotfire software.

SMILES strings stand for the structures. Where only a bound is given, the exact number is not on record here.

NRAS (SEQ ID NO: 5), sequence (P01111 with tags, fused parts or gaps): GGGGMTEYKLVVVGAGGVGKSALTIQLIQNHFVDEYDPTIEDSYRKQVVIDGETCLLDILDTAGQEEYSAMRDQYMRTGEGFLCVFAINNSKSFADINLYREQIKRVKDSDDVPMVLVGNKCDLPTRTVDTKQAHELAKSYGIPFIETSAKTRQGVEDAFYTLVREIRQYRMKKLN
G13D, sequence (P01116 1-188 isoform P01116-2 G13D): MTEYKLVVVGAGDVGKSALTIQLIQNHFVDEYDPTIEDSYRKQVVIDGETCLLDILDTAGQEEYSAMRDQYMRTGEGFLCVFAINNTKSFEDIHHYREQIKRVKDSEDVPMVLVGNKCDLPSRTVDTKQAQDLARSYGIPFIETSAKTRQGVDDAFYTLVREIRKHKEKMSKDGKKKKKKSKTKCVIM

Take `Cc1cc2[nH]ncc2c(-c2c(F)cc3c(N4CCOC[C@@](C)(O)C4)nc(OC[C@@]45CCCN4C[C@H](F)C5)nc3c2F)c1C(F)(F)F` [Ex-41, (6S)-4-(6,8-difluoro-2-(((2R,7aS)-2-fluorotetrahydro-1H-pyrrolizin-7a(5H)-yl)methoxy)-7-(6-methyl-5-(trifluoromethyl)-1H-indazol-4-yl)quinazolin-4-yl)-6-methyl-1,4-oxazepan-6-ol]: the IC50 in test [1] was more than 11100 nM; in test [2], 48 nM; in test [3], more than 11100 nM; in test [4], 33 nM; in test [5], 60 nM; in test [6], 285 nM. Also, in test [7], the IC50 turned out to be 203 nM.

`C#Cc1cccc2cc(O)cc(-c3c(Cl)cc4c(N5CCC[C@@](C)(O)C5)nc(OC[C@@]56CCCN5C[C@H](F)C6)nc4c3F)c12` [Ex-1, (3R)-1-(6-chloro-7-(8-ethynyl-3-hydroxvnaphthalen-1-yl)-8-fluoro-2-(((2R,7aS)-2-fluorotetrahydro-1H-pyrrolizin-7a(5H)-yl)methoxy)quinazolin-4-yl)-3-methylpiperidin-3-ol]: the IC50 in test [1] is more than 9950 nM; in test [3], more than 9950 nM; in test [6], 70 nM; in test [7], 41 nM.

With `C#Cc1cccc2cc(O)cc(-c3c(F)cc4c(N5CCC[C@@](C)(O)C5)nc(OC[C@@]56CCCN5C[C@H](F)C6)nc4c3F)c12` [Ex-42, (3R)-1-(7-(8-ethynyl-3-hydroxvnaphthalen-1-yl)-6,8-difluoro-2-(((2R,7aS)-2-fluorotetrahydro-1H-pyrrolizin-7a(5H)-yl)methoxy)quinazolin-4-yl)-3-methylpiperidin-3-ol], the IC50 in test [1] is more than 10000 nM; in test [2], 4 nM; in test [3], more than 10000 nM; in test [4] it was 3 nM; in test [5], 3 nM; in test [6], 91 nM. The IC50 in test [7] was determined as 58 nM.

For `CN(C)CC1(COc2nc(N3CCCC(O)CC3)c3cc(Cl)c(-c4ccc(F)c5sc(N)nc45)c(F)c3n2)CC1` (centres unmarked) [Ex-17, 1-(7-(2-amino-7-fluorobenzo[d]thiazol-4-yl)-6-chloro-2-((1-((dimethylamino)methyl)cyclopropyl)methoxy)-8-fluoroquinazolin-4-yl)azepan-4-ol], the IC50 in test [1] was more than 9950 nM; in test [2] it was 341 nM; in test [3], more than 9950 nM; in test [4], 283 nM; in test [5], 237 nM.
